Laboratory results reported in patent US7141553B2, “A3AR agonists for the treatment of inflammatory arthritis” (Can-Fite Biopharma Ltd. Israel, priority 2002, dated 2006).

Legend:
[1] = test system: collagen-induced arthritis; assay: Collagen-induced-arthritis (CIA) model in mice; type: in vivo, mouse
Procedure: Male DBA mice, aged 10 weeks, were injected SC with 100 μl of Type II collagen 200 μg in complete Freund's adjuvant (CFA). On day 21 a booster injection of the same emulsion was administered. Mice were inspected daily for symptoms of clinical arthritis.
The inflammatory intensity, presented as joint swelling, was measured by Caliper (Mitutoyo Co., Tokyo, Japan). Histopathological sections of these decalcified whole joints were stained with hematoxylin-eosin. Slides were screened for the following arthritic characteristics: inflammatory cell infiltration, synovial cell lining hyperplasia and pannus formation. The histological assessment of the knees inflammation intensity was divided to four parameters: • 1. Lymphatic follicle like formation—graded 0–4 • 2. Inflammatory cells infiltration—graded 0–4 • 3. Synovial cells hyperplasia—graded 0–4 • 4. Pannus formation—graded 0–4 The arithmetic sum of these four parameters above all together designated-“Total Arthritic Score” (Goldenberg et al, J. Rheumatol. 1: 5–11, 1983). The white blood cell (WBC) count and the serum levels of the pro-inflammatory cytokine TMF-α served as humoral markers of the immune system activation. Tumor necrosis factor-α sera level was determined, in accordance with the manufacturer's guidelines, by ELISA kit “Quantikine M” (R&D Systems, Minneapolis, Minn., USA). 4. Statistical Analysis
Male DBA mice were treated to produce collagen-induced-arthritis as described above. Each group contained 10 animals and each experiment was conducted at least three times.
IB-MECA (10 μg/kg) was orally administered by gavage, twice daily starting at onset of clinical arthritis. The […] control received vehicle only. The inflammatory intensity in the CIA model was determined in accordance with the increase in the mice hind paw's diameter, measured by caliper (Mitotoyo, Tokyo, Japan). The mean score in each experimental group was designated as the “Clinical Score”. […]
The assessment of all pathologic findings were performed blind (by L. R-W and M. H) using semi-quantitative grading scales of 0 to 4 for the following parameters: […]

[2] = Repeat dose study in healthy men, plasma pharmacokinetics; type: in vivo, human; conditions: for Cmax: n=5
Procedure: In the single dose study, 15 healthy men (3 groups of 5) received a single oral dose of IB-MECA (1, 5 or 10 mg) or placebo. In each group, 1 subject received placebo. In the repeated dose study, 28 healthy men (4 groups of 7) received repeated oral doses of IB-MECA (2, 3, 4 or 5 mg) or placebo every 12 h for 7 days. In each group, 2 subjects received placebo.
In the single dose study, a solution with IB-MECA powder in 30% Cremophor RH40 (BASF) was used. In the repeated dose study, an aqueous 0.5% methylcellulose suspension (Methocel A4M Premium, The Dow Chemical Company) was used. In both studies, the study medication was taken orally as a drink, followed by 50 ml of tap water.
The following procedures were done: • Safety assesment: laboratory assessments (routine biochemistry and urinalysis), physical examination, 12-lead ECG, ambulatory ECG, pulmonary function testing (FEV1), vital signs (semi-recumbent in the single dose study; semi-recumbent and standing in the repeat dose study). Adverse events were recorded throughout both studies. • Determination of IB-MECA blood level: in the single dose study blood samples for assay of IB-MECA were taken immediately before and at 0.25, 0.5, 1, 2, 4, 8, 12, 24, and 48 h after dosing; in the repeat dose study—blood samples were taken immediately before and at 0.25, 0.5, 1, 2, 4, 8, and 12 h after dosing on Day 1, before dosing on Days 2–6, and before and at 0.25, 0.5, 1, 2, 4, 8, 12, and 24 h after dosing on Day 7.
Plasma samples were assayed for IB-MECA using LC/MS/MS. The lower limit of quantification (LLOQ) was 0.1 ng/mL. Intra-assay coefficients of variation (CV) were <5.0% and inter-assay CVs were <9.4%.
Maximum concentration (Cmax) and time to maximum concentration (tmax) were observed values. Other pharmacokinetic parameters (half-life, t^1/2; AUC; and clearance, CL/F) were calculated by non-compartmental methods using WinNonlin® software (version 3.0, Pharsight, Mountain View, Calif., US). Accumulation indices of Cmax and AUC were calculated as ratio of values at steady state (Day 7) to the values on Day 1.

macrophages = conditions: dose dependent; cited from earlier work
[3] = 2 mg every 12 h, Day 1, mean (SD)
[4] = 2 mg every 12 h, Day 7, mean (SD)
[5] = 3 mg every 12 h, Day 1, mean (SD)
[6] = 3 mg every 12 h, Day 7, mean (SD)
[7] = 4 mg every 12 h, Day 1, mean (SD)
[8] = 4 mg every 12 h, Day 7, mean (SD)
[9] = 5 mg every 12 h, Day 1, mean (SD)
[10] = 5 mg every 12 h, Day 7, mean (SD)
[11] = repeated doses, independent of dose

In the case of `CNC(=O)[C@H]1O[C@@H](n2cnc3c(NCc4cccc(I)c4)ncnc32)[C@H](O)[C@@H]1O` [IB-MECA, N6-(3-iodobenzyl)-adenosine-5′-N-methyl-uronamide], the “intensity of the arthritis” value ([1]; 10 μg/kg orally, day 21 difference significant p<0.02) is reported as “reduced throughout the experimental period”, the “histology sections of joints” value ([1]; 10 μg/kg, FIG. 7C) is reported as “minimal inflammatory changes” and the histology score ([1]; 10 μg/kg, p<0.01 vs control, FIG. 8) is reported as 1.0±0.6. For the same compound, the “AUC (AUC(inf) on Day 1)” value [2, 3] was 207.4 (52.0) ng · h/mL, the “AUC(0–12)” value [2, 3] was 155.2 (39.1) ng · h/mL and the CL/F [2, 3] was 10.1 (2.3) L/h. For the same compound, the t1/2 [2, 3] was 5.52 (0.2) h, the Cmax [2, 3] was 22.0 (3.3) ng/mL and the tmax ([2]; 2 mg every 12 h, Day 1, median (range)) was 2 (1–4) h. The “AUC (AUC(0–24) on Day 7)” value [2, 4] was 346.3 (64.0) ng · h/mL, the “AUC(0–12)” value [2, 4] was 242.4 (41.4) ng · h/mL and the CL/F [2, 4] was 4.9 (0.7) L/h. For the same compound, the t1/2 [2, 4] was 9.83 (1.2) h, the Cmax [2, 4] was 30.9 (3.1) ng/mL and the tmax ([2]; 2 mg every 12 h, Day 7, median (range)) was 2 (1–2) h. The “AUC (AUC(inf) on Day 1)” value [2, 5] was 423.5 (27.5) ng · h/mL, the “AUC(0–12)” value [2, 5] was 304.5 (19.5) ng · h/mL and the CL/F [2, 5] was 7.1 (0.5) L/h. The t1/2 [2, 5] was 6.29 (1.0) h, the Cmax [2, 5] was 49.3 (9.7) ng/mL and the tmax ([2]; 3 mg every 12 h, Day 1, median (range)) was 2 (1–2) h. The “AUC (AUC(0–24) on Day 7)” value [2, 6] was 512.1 (74.1) ng · h/mL, the “AUC(0–12)” value [2, 6] was 341.6 (38.1) ng · h/mL and the CL/F [2, 6] was 5.0 (0.6) L/h. The t1/2 [2, 6] was 9.25 (0.8) h, the Cmax [2, 6] was 49.0 (7.9) ng/mL and the tmax ([2]; 3 mg every 12 h, Day 7, median (range)) was 1 (1–2) h. For the same compound, the “AUC (AUC(inf) on Day 1)” value [2, 7] was 400.2 (85.7) ng · h/mL, the “AUC(0–12)” value [2, 7] was 297.0 (57.2) ng · h/mL and the CL/F [2, 7] was 10.4 (2.1) L/h. The t1/2 [2, 7] was 5.77 (0.6) h, the Cmax [2, 7] was 46.2 (11.4) ng/mL and the tmax ([2]; 4 mg every 12 h, Day 1, median (range)) was 2 (1–2) h. For the same compound, the “AUC (AUC(0–24) on Day 7)” value [2, 8] was 640.3 (73.7) ng · h/mL, the “AUC(0–12)” value [2, 8] was 458.3 (54.8) ng · h/mL and the CL/F [2, 8] was 5.4 (0.7) L/h. The t1/2 [2, 8] was 8.93 (0.8) h, the Cmax [2, 8] was 58.1 (10.4) ng/mL and the tmax ([2]; 4 mg every 12 h, Day 7, median (range)) was 1 (1–2) h. For the same compound, the “AUC (AUC(inf) on Day 1)” value [2, 9] was 596.1 (196.6) ng · h/mL, the “AUC(0–12)” value [2, 9] was 461.6 (157.4) ng · h/mL and the CL/F [2, 9] was 9.3 (3.5) L/h. The t1/2 [2, 9] was 4.96 (0.3) h, the Cmax [2, 9] was 63.6 (22.0) ng/mL and the tmax ([2]; 5 mg every 12 h, Day 1, median (range)) was 2 (1–2) h. For the same compound, the “AUC (AUC(0–24) on Day 7)” value [2, 10] was 818.4 (214.0) ng · h/mL, the “AUC(0–12)” value [2, 10] was 601.0 (163.6) ng · h/mL and the CL/F [2, 10] was 5.4 (1.5) L/h. The t1/2 [2, 10] was 9.39 (0.6) h, the Cmax [2, 10] was 79.5 (24.1) ng/mL and the tmax ([2]; 5 mg every 12 h, Day 7, median (range)) was 2 (2–2) h. For the same compound, the “accumulation index for AUC” value ([2]; ratio Day 7 to Day 1) was 1.1–1.6, the “accumulation index for Cmax” value ([2]; ratio Day 7 to Day 1) was 1–1.4 and the tmax ([2]; repeated doses 2-5 mg every 12 h) was 1 to 2 h. For the same compound, the “steady state reached by” value ([2]; repeated doses every 12 h) was ≤ 3 days, the “apparent plasma clearance (CL/F)” value [2, 11] was 5 to 10 L/h and the “half-life at steady state” value [2, 11] was 9 to 10 h. The “production of MIP-1α in macrophages” value (macrophages) was “suppresses the production of MIP-1α” and the “production of the cytokines IL-1, IL-2, IL-6 as well as NO” value (macrophages) was “inhibit, also in a dose dependent manner”.
